Active and inactive are the calls of the source. The rule behind the calls is not given here.
System: CCRIS mutagenicity, Ames/micronucleus/aberration tests
Experiment: CCRIS mutagenicity studies
[1] = Test System: AMES SALMONELLA TYPHIMURIUM, Strain/Indicator: TA98, Metabolic Activation: NONE, Method: PREINCUBATION
[2] = Test System: AMES SALMONELLA TYPHIMURIUM, Strain/Indicator: TA100, Metabolic Activation: NONE, Method: PREINCUBATION
[3] = Test System: AMES SALMONELLA TYPHIMURIUM, Strain/Indicator: TA1535, Metabolic Activation: NONE, Method: PREINCUBATION
[4] = Test System: AMES SALMONELLA TYPHIMURIUM, Strain/Indicator: TA1537, Metabolic Activation: NONE, Method: PREINCUBATION
[5] = Test System: AMES SALMONELLA TYPHIMURIUM, Strain/Indicator: TA102, Metabolic Activation: NONE, Method: PREINCUBATION
[6] = Test System: AMES SALMONELLA TYPHIMURIUM, Strain/Indicator: TA97, Metabolic Activation: NONE, Method: PREINCUBATION

## CC(Cl)CCCC(Cl)CCCC(Cl)CCCC(Cl)CCCC(Cl)CCCC(Cl)CCCl (stereo unspecified)
End Point: IN VITRO CHROMOSOMAL ABERRATIONS, Test System: CHO CELLS, Metabolic Activation: NONE
  mutagenic call: active; positive; oily droplets formed at all doses
End Point: IN VITRO CHROMOSOMAL ABERRATIONS, Test System: CHO CELLS, Metabolic Activation: RAT, LIVER, S-9, AROCLOR 1254
  mutagenic call: inactive; negative; oily droplets formed at all doses
Test System: AMES SALMONELLA TYPHIMURIUM, Strain/Indicator: TA98, Metabolic Activation: HAMSTER, LIVER, S-9, AROCLOR 1254, Method: PREINCUBATION
  mutagenic call: inactive; negative
[1]
  mutagenic call: inactive; negative
Test System: AMES SALMONELLA TYPHIMURIUM, Strain/Indicator: TA98, Metabolic Activation: RAT, LIVER, S-9, AROCLOR 1254, Method: PREINCUBATION
  mutagenic call: inactive; negative
Test System: AMES SALMONELLA TYPHIMURIUM, Strain/Indicator: TA100, Metabolic Activation: HAMSTER, LIVER, S-9, AROCLOR 1254, Method: PREINCUBATION
  mutagenic call: inactive; negative
[2]
  mutagenic call: inactive; negative
Test System: AMES SALMONELLA TYPHIMURIUM, Strain/Indicator: TA100, Metabolic Activation: RAT, LIVER, S-9, AROCLOR 1254, Method: PREINCUBATION
  mutagenic call: inactive; negative
Test System: AMES SALMONELLA TYPHIMURIUM, Strain/Indicator: TA1535, Metabolic Activation: HAMSTER, LIVER, S-9, AROCLOR 1254, Method: PREINCUBATION
  mutagenic call: inactive; negative
[3]
  mutagenic call: inactive; negative
Test System: AMES SALMONELLA TYPHIMURIUM, Strain/Indicator: TA1535, Metabolic Activation: RAT, LIVER, S-9, AROCLOR 1254, Method: PREINCUBATION
  mutagenic call: inactive; negative
Test System: AMES SALMONELLA TYPHIMURIUM, Strain/Indicator: TA1537, Metabolic Activation: HAMSTER, LIVER, S-9, AROCLOR 1254, Method: PREINCUBATION
  mutagenic call: inactive; negative
[4]
  mutagenic call: inactive; negative
Test System: AMES SALMONELLA TYPHIMURIUM, Strain/Indicator: TA1537, Metabolic Activation: RAT, LIVER, S-9, AROCLOR 1254, Method: PREINCUBATION
  mutagenic call: inactive; negative

## OC[C@H](O)CCl
[1]
  mutagenic call: inactive; negative
Test System: AMES SALMONELLA TYPHIMURIUM, Strain/Indicator: TA98, Metabolic Activation: RAT, LIVER, S-9, KANECHLOR 500, Method: PREINCUBATION
  mutagenic call: inactive; negative
[2]
  mutagenic call: active; positive
Test System: AMES SALMONELLA TYPHIMURIUM, Strain/Indicator: TA100, Metabolic Activation: RAT, LIVER, S-9, KANECHLOR 500, Method: PREINCUBATION
  mutagenic call: inactive; negative
Test System: AMES SALMONELLA TYPHIMURIUM, Strain/Indicator: TA100, Metabolic Activation: RAT, LIVER, S-9, PCB, Method: PREINCUBATION
  mutagenic call: active; positive

## CC(C)(C)ON=O
[2]
  mutagenic call: active; positive
Test System: AMES SALMONELLA TYPHIMURIUM, Strain/Indicator: TA100, Metabolic Activation: RAT, LIVER, S-9, AROCLOR, Method: PREINCUBATION
  mutagenic call: inactive; negative
[5]
  mutagenic call: inactive; negative

## CCCC(=O)O
[6]
  mutagenic call: inactive; negative
Test System: AMES SALMONELLA TYPHIMURIUM, Strain/Indicator: TA97, Metabolic Activation: RAT, LIVER, S-9, AROCLOR 1254, Method: PREINCUBATION
  mutagenic call: inactive; negative
[1]
  mutagenic call: inactive; negative
Test System: AMES SALMONELLA TYPHIMURIUM, Strain/Indicator: TA98, Metabolic Activation: RAT LIVER S-9, PHENOBARBITAL AND BETA-NAPHTHOFLAVONE, Method: PREINCUBATION
  mutagenic call: inactive; negative
[2]
  mutagenic call: inactive; negative
Test System: AMES SALMONELLA TYPHIMURIUM, Strain/Indicator: TA100, Metabolic Activation: RAT LIVER S-9, PHENOBARBITAL AND BETA-NAPHTHOFLAVONE, Method: PREINCUBATION
  mutagenic call: inactive; negative
[5]
  mutagenic call: inactive; negative
Test System: AMES SALMONELLA TYPHIMURIUM, Strain/Indicator: TA102, Metabolic Activation: RAT LIVER S-9, PHENOBARBITAL AND BETA-NAPHTHOFLAVONE, Method: PREINCUBATION
  mutagenic call: inactive; negative
Test System: AMES SALMONELLA TYPHIMURIUM, Strain/Indicator: TA102, Metabolic Activation: RAT, LIVER, S-9, AROCLOR 1254, Method: PREINCUBATION
  mutagenic call: inactive; negative
Test System: AMES SALMONELLA TYPHIMURIUM, Strain/Indicator: TA104, Metabolic Activation: NONE, Method: PREINCUBATION
  mutagenic call: inactive; negative
Test System: AMES SALMONELLA TYPHIMURIUM, Strain/Indicator: TA104, Metabolic Activation: RAT LIVER S-9, PHENOBARBITAL AND BETA-NAPHTHOFLAVONE, Method: PREINCUBATION
  mutagenic call: inactive; negative
[3]
  mutagenic call: inactive; negative
Test System: AMES SALMONELLA TYPHIMURIUM, Strain/Indicator: TA1535, Metabolic Activation: RAT LIVER S-9, PHENOBARBITAL AND BETA-NAPHTHOFLAVONE, Method: PREINCUBATION
  mutagenic call: inactive; negative
[4]
  mutagenic call: inactive; negative
Test System: AMES SALMONELLA TYPHIMURIUM, Strain/Indicator: TA1537, Metabolic Activation: RAT LIVER S-9, PHENOBARBITAL AND BETA-NAPHTHOFLAVONE, Method: PREINCUBATION
  mutagenic call: inactive; negative
Test System: E.COLI, Strain/Indicator: WP2UVRA/PKM101, Metabolic Activation: NONE, Method: PREINCUBATION
  mutagenic call: inactive; negative
Test System: E.COLI, Strain/Indicator: WP2UVRA/PKM101, Metabolic Activation: RAT LIVER S-9, PHENOBARBITAL AND BETA-NAPHTHOFLAVONE, Method: PREINCUBATION
  mutagenic call: inactive; negative
Test System: E.COLI, Strain/Indicator: WP2UVRA, Metabolic Activation: NONE, Method: PREINCUBATION
  mutagenic call: inactive; negative
Test System: E.COLI, Strain/Indicator: WP2UVRA, Metabolic Activation: RAT LIVER S-9, PHENOBARBITAL AND BETA-NAPHTHOFLAVONE, Method: PREINCUBATION
  mutagenic call: inactive; negative

## COC(=O)C(Cl)CCC(Cl)CCCCCC(Cl)CCC(Cl)CCCCCl (stereo unspecified)
Test System: AMES SALMONELLA TYPHIMURIUM, Strain/Indicator: TA97, Metabolic Activation: HAMSTER, LIVER, S-9, AROCLOR 1254 (10 OR 30%), Method: PREINCUBATION
  mutagenic call: inactive; negative
[6]
  mutagenic call: inactive; negative
Test System: AMES SALMONELLA TYPHIMURIUM, Strain/Indicator: TA97, Metabolic Activation: RAT, LIVER, S-9, AROCLOR 1254 (10 OR 30%), Method: PREINCUBATION
  mutagenic call: inactive; negative
Test System: AMES SALMONELLA TYPHIMURIUM, Strain/Indicator: TA98, Metabolic Activation: HAMSTER, LIVER, S-9, AROCLOR 1254 (10 OR 30%), Method: PREINCUBATION
  mutagenic call: inactive; negative
[1]
  mutagenic call: inactive; negative
Test System: AMES SALMONELLA TYPHIMURIUM, Strain/Indicator: TA98, Metabolic Activation: RAT, LIVER, S-9, AROCLOR 1254 (10 OR 30%), Method: PREINCUBATION
  mutagenic call: inactive; negative
Test System: AMES SALMONELLA TYPHIMURIUM, Strain/Indicator: TA100, Metabolic Activation: HAMSTER, LIVER, S-9, AROCLOR 1254 (10 OR 30%), Method: PREINCUBATION
  mutagenic call: inactive; negative
[2]
  mutagenic call: inactive; negative
Test System: AMES SALMONELLA TYPHIMURIUM, Strain/Indicator: TA100, Metabolic Activation: RAT, LIVER, S-9, AROCLOR 1254 (10 OR 30%), Method: PREINCUBATION
  mutagenic call: inactive; negative
Test System: AMES SALMONELLA TYPHIMURIUM, Strain/Indicator: TA1535, Metabolic Activation: HAMSTER, LIVER, S-9, AROCLOR 1254 (10 OR 30%), Method: PREINCUBATION
  mutagenic call: inactive; negative
[3]
  mutagenic call: inactive; negative
Test System: AMES SALMONELLA TYPHIMURIUM, Strain/Indicator: TA1535, Metabolic Activation: RAT, LIVER, S-9, AROCLOR 1254 (10 OR 30%), Method: PREINCUBATION
  mutagenic call: inactive; negative

## COc1cc(Cl)c(Cl)c(Cl)c1O
Test System: CHINESE HAMSTER V-79, Strain/Indicator: V-79/6-THIOGUANINE, Metabolic Activation: NONE, Method: STANDARD PLATE
  mutagenic call: active; positive
Test System: CHINESE HAMSTER V-79, Strain/Indicator: V-79/6-THIOGUANINE, Metabolic Activation: PRIMARY RAT HEPATOCYTES, Method: STANDARD PLATE
  mutagenic call: inactive; negative

## C[C@@H]1CC2c3cccc4c3c(cn4C3CCCC3)C[C@H]2N(C)C1 (stereo partly specified)
Test System: AMES SALMONELLA TYPHIMURIUM, Strain/Indicator: TA100, Metabolic Activation: RAT, LIVER, S-9, AROCLOR 1254, Method: STANDARD PLATE
  mutagenic call: active; positive

Reference: PubChem BioAssay AID1259407 (Chemical Carcinogenesis Research Information System (CCRIS), 2018)
